Test results taken from PubChem BioAssay AID330 (DTP/NCI, 2004).
Several values for one entry are separate records, joined by “and”; a condition that tells them apart may be missing. Equal values may be shown once. Toxic doses and inconclusive results are not listed. Rule for the calls: active = survival T/C of 150% or more; inactive = T/C below 125% in these data. Peptide text beside a SMILES is read from it.

Test system: P388 leukemia ip, CD2F1 mice, survival T/C
Assay: NCI In Vivo Anticancer Drug Screen. Data for tumor model P388 Leukemia (intraperitoneal) in CD2F1 (CDF1) mice
Details: endpoint: median survival time, higher = longer survival
In short: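 Mice carrying the transplanted tumor received test compound or vehicle. Survival was recorded in each group, and the value is the treated-group measurement divided by that of the vehicle-treated control group.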

[1] = dose: 50.0 mg/kg/injection, schedule: Q01DX009 (ip), vehicle: saline with Tween-80
[2] = dose: 100.0 mg/kg/injection, schedule: Q01DX009 (ip), vehicle: saline with Tween-80
[3] = dose: 200.0 mg/kg/injection, schedule: Q01DX009 (ip), vehicle: saline with Tween-80
[4] = dose: 50.0 mg/kg/injection, schedule: Q01DX005 (ip), vehicle: saline with Tween-80
[5] = dose: 100.0 mg/kg/injection, schedule: Q01DX005 (ip), vehicle: saline with Tween-80
[6] = dose: 50.0 mg/kg/injection, schedule: Q01DX005 (ip), vehicle: saline
[7] = dose: 100.0 mg/kg/injection, schedule: Q01DX005 (ip), vehicle: saline
[8] = dose: 200.0 mg/kg/injection, schedule: Q01DX005 (ip), vehicle: saline
[9] = dose: 50.0 mg/kg/injection, schedule: Q01DX005 (ip), vehicle: Klucel (hydroxypropylcellulose) (HPC)
[10] = dose: 100.0 mg/kg/injection, schedule: Q01DX005 (ip), vehicle: Klucel (hydroxypropylcellulose) (HPC)
[11] = dose: 200.0 mg/kg/injection, schedule: Q01DX005 (ip), vehicle: Klucel (hydroxypropylcellulose) (HPC)
[12] = dose: 200.0 mg/kg/injection, schedule: Q01DX005 (ip), vehicle: saline with Tween-80
[13] = dose: 25.0 mg/kg/injection, schedule: Q01DX009 (ip), vehicle: other

Measured: T/C

CCCCN=C(N)N/N=C(\C)c1ccc(-c2ccccc2)cc1
inactive: dose: 1.25 mg/kg/injection, schedule: Q04DX002 (ip), vehicle: saline with Tween-80 102 % of control | dose: 2.5 mg/kg/injection, schedule: Q04DX002 (ip), vehicle: saline with Tween-80 104 % of control | dose: 5.0 mg/kg/injection, schedule: Q04DX002 (ip), vehicle: saline with Tween-80 104 % of control

CCOc1ccc(/C=N/NC(=S)NC23CC4CC(CC(C4)C2)C3)cc1OCC
inactive: dose: 30.0 mg/kg/injection, schedule: Q01DX005 (ip), vehicle: saline with Tween-80 108 % of control | dose: 60.0 mg/kg/injection, schedule: Q01DX005 (ip), vehicle: saline with Tween-80 102 % of control and 86 % of control | dose: 120.0 mg/kg/injection, schedule: Q01DX005 (ip), vehicle: saline with Tween-80 90 % of control

NC(=O)NC(c1ccccc1)C(O)(c1ccccc1)c1ccccc1 (stereo not given)
inactive: [1] 87 % of control | [2] 93 % of control | [3] 96 % of control

CC(=O)OCC12C=CC(O1)C1C(=O)OC(=O)C12 (stereo not given)
inactive: [4] 94 % of control | [5] 88 % of control

O=C1C=CC(=O)N1n1cccc1
inactive: dose: 6.25 mg/kg/injection, schedule: Q01DX009 (ip), vehicle: Klucel (hydroxypropylcellulose) (HPC) 105 % of control | dose: 12.5 mg/kg/injection, schedule: Q01DX009 (ip), vehicle: Klucel (hydroxypropylcellulose) (HPC) 98 % of control | dose: 25.0 mg/kg/injection, schedule: Q01DX009 (ip), vehicle: Klucel (hydroxypropylcellulose) (HPC) 90 % of control

Cc1cc[n+](-c2c3c(nc4ccccc24)-c2ccccc2C(C)(C)C3)cc1
inactive: dose: 12.5 mg/kg/injection, schedule: Q01DX005 (ip), vehicle: saline 100 % of control | dose: 25.0 mg/kg/injection, schedule: Q01DX005 (ip), vehicle: saline 91 % of control | [6] 94 % of control | [7] 106 % of control

CC1(O)CCC(O)CC1CC(=O)O (stereo not given)
inactive: [6] 107 % of control | [7] 100 % of control | [8] 105 % of control

C(=NCCC[Si]12OCCN(CCO1)CCO2)c1c[nH]c2ccccc12
inactive: [9] 104 % of control | [10] 103 % of control | [11] 102 % of control

CCNc1cc(N)[n+](CC)c2n[nH]c(/N=C/c3cc(Cl)cc(Cl)c3O)c12
inactive: [4] 97 % of control | [5] 87 % of control | [12] 93 % of control

CCCCCCC(=O)/C=C/c1cccc(OCOCC)c1
inactive: [1] 111 % of control and 113 % of control and 122 % of control | [2] 115 % of control and 122 % of control | [3] 108 % of control and 119 % of control

CC(=O)Oc1ccc(OC(C)=O)c2c1CC=CC2
inactive: [9] 105 % of control | [10] 105 % of control | [11] 100 % of control

CCCCCCCCCCCCCCCCCC(=O)[O][Sn]([CH2]CCC)([CH2]CCC)[O]C(=O)CCCCCCCCCCCCCCCCC
inactive: dose: 2.66 mg/kg/injection, schedule: Q04DX003 (ip), vehicle: other 109 % of control | dose: 4.0 mg/kg/injection, schedule: Q04DX003 (ip), vehicle: other 106 % of control | dose: 6.0 mg/kg/injection, schedule: Q04DX003 (ip), vehicle: other 109 % of control | dose: 9.0 mg/kg/injection, schedule: Q04DX003 (ip), vehicle: other 110 % of control

[O-]c1cc2c3c(c1)c1cc4c(cc1c[n+]3C=C2)OCO4
inactive: [13] 123 % of control

COc1ccc(C)cc1NC(=O)Sc1ccc(Cl)cc1
inactive: dose: 25.0 mg/kg/injection, schedule: Q01DX005 (ip), vehicle: saline with Tween-80 110 % of control and 115 % of control | dose: 50.0 mg/kg/injection, schedule: Q01DX005 (ip), vehicle: saline + Tween-80 + alcohol 117 % of control | [4] 120 % of control and 123 % of control | dose: 100.0 mg/kg/injection, schedule: Q01DX005 (ip), vehicle: saline + Tween-80 + alcohol 119 % of control | [5] 122 % of control | [12] 106 % of control

O=C(O)c1cc(-n2c(-c3ccccc3)cc3c2CCc2ccccc2-3)ccc1O
inactive: [4] 109 % of control | [5] 110 % of control

O=C1C2=C(Nc3cc([N+](=O)[O-])ccc3N2)OC1c1c2ccccc2cc2ccccc12 (stereo not given)
inactive: dose: 60.0 mg/kg/injection, schedule: Q01DX005 (ip), vehicle: Klucel (hydroxypropylcellulose) (HPC) 94 % of control | dose: 120.0 mg/kg/injection, schedule: Q01DX005 (ip), vehicle: Klucel (hydroxypropylcellulose) (HPC) 88 % of control

O=C1c2cc([N+](=O)[O-])cc3cc([N+](=O)[O-])cc(c23)C(=O)N1CCN1CCN(CCN2C(=O)c3cc([N+](=O)[O-])cc4cc([N+](=O)[O-])cc(c34)C2=O)CC1
inactive: dose: 100.0 mg/kg/injection, schedule: Q04DX002 (ip), vehicle: saline with Tween-80 100 % of control | dose: 200.0 mg/kg/injection, schedule: Q04DX002 (ip), vehicle: saline with Tween-80 97 % of control | dose: 400.0 mg/kg/injection, schedule: Q04DX002 (ip), vehicle: saline with Tween-80 94 % of control

NC(N)=NCCCC(N)C(=O)N1CCCC1C(=O)O (stereo not drawn) (H-Arg-Pro-OH; configuration not given here)
inactive: [6] 101 % of control | [7] 97 % of control | [8] 100 % of control

CCCC(=O)OCc1ccc(Cl)c(Cl)c1
inactive: dose: 25.0 mg/kg/injection, schedule: Q04DX003 (ip), vehicle: saline 100 % of control | dose: 50.0 mg/kg/injection, schedule: Q04DX003 (ip), vehicle: saline 104 % of control | dose: 100.0 mg/kg/injection, schedule: Q04DX003 (ip), vehicle: saline 100 % of control

Cn1cccc1C1NC(=O)C(c2cccn2C)NC1=O (stereo not given)
inactive: [9] 95 % of control | [10] 96 % of control | [11] 92 % of control

COc1ccc(OC)c(C(=O)C=C(C(F)(F)F)C(F)(F)F)c1
inactive: [13] 120 % of control | dose: 50.0 mg/kg/injection, schedule: Q04DX003 (ip), vehicle: other 113 % of control | dose: 66.0 mg/kg/injection, schedule: Q04DX003 (ip), vehicle: other 109 % of control | dose: 100.0 mg/kg/injection, schedule: Q01DX009 (ip), vehicle: other 95 % of control | dose: 100.0 mg/kg/injection, schedule: Q04DX003 (ip), vehicle: other 109 % of control | dose: 150.0 mg/kg/injection, schedule: Q04DX003 (ip), vehicle: other 113 % of control

COSc1ccc([N+](=O)[O-])cc1[N+](=O)[O-]
inactive: dose: 12.5 mg/kg/injection, schedule: Q01DX009 (ip), vehicle: saline with Tween-80 95 % of control | dose: 25.0 mg/kg/injection, schedule: Q01DX009 (ip), vehicle: saline with Tween-80 96 % of control | dose: 25.0 mg/kg/injection, schedule: Q01DX009 (ip), vehicle: saline 98 % of control | [1] 103 % of control | dose: 50.0 mg/kg/injection, schedule: Q01DX009 (ip), vehicle: saline 102 % of control | [2] 103 % of control | dose: 100.0 mg/kg/injection, schedule: Q01DX009 (ip), vehicle: saline 108 % of control | dose: 200.0 mg/kg/injection, schedule: Q01DX009 (ip), vehicle: saline 111 % of control

COc1ccc(CCNC(=O)c2cc3ccccc3oc2=O)cc1OC
inactive: [1] 94 % of control | [2] 96 % of control | [3] 97 % of control

O=C1CC2(CCCC2)C(=O)N1c1cccc([N+](=O)[O-])c1
inactive: dose: 50.0 mg/kg/injection, schedule: Q01DX009 (ip), vehicle: Klucel (hydroxypropylcellulose) (HPC) 92 % of control | dose: 100.0 mg/kg/injection, schedule: Q01DX009 (ip), vehicle: Klucel (hydroxypropylcellulose) (HPC) 106 % of control | dose: 200.0 mg/kg/injection, schedule: Q01DX009 (ip), vehicle: Klucel (hydroxypropylcellulose) (HPC) 101 % of control
